Data reported in patent publication US5912153A, “(1,3) β-glucan synthase genes and inducible inhibition of fungal growth using the antisense constructs derived therefrom” (priority 1995, dated 1999).

Target: Neurospora crassa wild type (1,3)β-glucan synthase (crude extract) (Neurospora crassa, UniProt Q7S0A7)
Assay: (1,3)β-glucan synthase assay with quinate added to wild type crude extract
Type: biochemical
Details: concentrations as high as 4.0% of quinate added to the assay, data not shown
Method: To fresh hyphal pellets was added 20-mls of extraction buffer (25 mM HEPES (pH7.4); 10 mM NaH2 PO4; 600 mM glycerol; 10 mM NaF; 5 mM EDTA and 10 μM GTPy-S). At 4° C., hyphae were disrupted (5×30 second pulses with 2 minute coolings between each pulse) using a Bead Beater (Biospec Products, Bartlesville, Okla.) with 0.5 mm zirconium-silica beads. Lysates were centrifuged at 1000×g for 10 min at […], and used for the enzyme assays as will subsequently be described. Protein concentrations were determined by the method of Bradford using the Bio-Rad protein reagent (BioRad Labs, Hercules, Calif.). The yield was anywhere from 0.9-2.4 mg/ml crude extract depending on the transformant.
(1,3)β-Glucan synthase was assayed using modifications of a procedure previously described. To this end, in vitro reactions contained 50 μg α-amylase (type IIA; Sigma), 1 mM UDP-^14 C-glucose (~50,000 cpm/assay), and 20 μl crude extract in a final volume of 26 μl. Reactions were carried out in V-bottom 96-well microtiter plates (Dynatec Laboratories, Chantilly, Va.) and incubated at 22° C. for 0, 15, 30, 45, and 60 minutes. […]
Wrapped Inotech glass fiber filters were placed for 4-18 hours on a Molecular Dynamics Phosphor Screen. The amount of radioactivity on the filter was determined using a Molecular Dynamics Phosphor Imager Model Sl. […]

Sequence of Neurospora crassa wild type (1,3)β-glucan synthase (crude extract) (Q7S0A7 1-1955): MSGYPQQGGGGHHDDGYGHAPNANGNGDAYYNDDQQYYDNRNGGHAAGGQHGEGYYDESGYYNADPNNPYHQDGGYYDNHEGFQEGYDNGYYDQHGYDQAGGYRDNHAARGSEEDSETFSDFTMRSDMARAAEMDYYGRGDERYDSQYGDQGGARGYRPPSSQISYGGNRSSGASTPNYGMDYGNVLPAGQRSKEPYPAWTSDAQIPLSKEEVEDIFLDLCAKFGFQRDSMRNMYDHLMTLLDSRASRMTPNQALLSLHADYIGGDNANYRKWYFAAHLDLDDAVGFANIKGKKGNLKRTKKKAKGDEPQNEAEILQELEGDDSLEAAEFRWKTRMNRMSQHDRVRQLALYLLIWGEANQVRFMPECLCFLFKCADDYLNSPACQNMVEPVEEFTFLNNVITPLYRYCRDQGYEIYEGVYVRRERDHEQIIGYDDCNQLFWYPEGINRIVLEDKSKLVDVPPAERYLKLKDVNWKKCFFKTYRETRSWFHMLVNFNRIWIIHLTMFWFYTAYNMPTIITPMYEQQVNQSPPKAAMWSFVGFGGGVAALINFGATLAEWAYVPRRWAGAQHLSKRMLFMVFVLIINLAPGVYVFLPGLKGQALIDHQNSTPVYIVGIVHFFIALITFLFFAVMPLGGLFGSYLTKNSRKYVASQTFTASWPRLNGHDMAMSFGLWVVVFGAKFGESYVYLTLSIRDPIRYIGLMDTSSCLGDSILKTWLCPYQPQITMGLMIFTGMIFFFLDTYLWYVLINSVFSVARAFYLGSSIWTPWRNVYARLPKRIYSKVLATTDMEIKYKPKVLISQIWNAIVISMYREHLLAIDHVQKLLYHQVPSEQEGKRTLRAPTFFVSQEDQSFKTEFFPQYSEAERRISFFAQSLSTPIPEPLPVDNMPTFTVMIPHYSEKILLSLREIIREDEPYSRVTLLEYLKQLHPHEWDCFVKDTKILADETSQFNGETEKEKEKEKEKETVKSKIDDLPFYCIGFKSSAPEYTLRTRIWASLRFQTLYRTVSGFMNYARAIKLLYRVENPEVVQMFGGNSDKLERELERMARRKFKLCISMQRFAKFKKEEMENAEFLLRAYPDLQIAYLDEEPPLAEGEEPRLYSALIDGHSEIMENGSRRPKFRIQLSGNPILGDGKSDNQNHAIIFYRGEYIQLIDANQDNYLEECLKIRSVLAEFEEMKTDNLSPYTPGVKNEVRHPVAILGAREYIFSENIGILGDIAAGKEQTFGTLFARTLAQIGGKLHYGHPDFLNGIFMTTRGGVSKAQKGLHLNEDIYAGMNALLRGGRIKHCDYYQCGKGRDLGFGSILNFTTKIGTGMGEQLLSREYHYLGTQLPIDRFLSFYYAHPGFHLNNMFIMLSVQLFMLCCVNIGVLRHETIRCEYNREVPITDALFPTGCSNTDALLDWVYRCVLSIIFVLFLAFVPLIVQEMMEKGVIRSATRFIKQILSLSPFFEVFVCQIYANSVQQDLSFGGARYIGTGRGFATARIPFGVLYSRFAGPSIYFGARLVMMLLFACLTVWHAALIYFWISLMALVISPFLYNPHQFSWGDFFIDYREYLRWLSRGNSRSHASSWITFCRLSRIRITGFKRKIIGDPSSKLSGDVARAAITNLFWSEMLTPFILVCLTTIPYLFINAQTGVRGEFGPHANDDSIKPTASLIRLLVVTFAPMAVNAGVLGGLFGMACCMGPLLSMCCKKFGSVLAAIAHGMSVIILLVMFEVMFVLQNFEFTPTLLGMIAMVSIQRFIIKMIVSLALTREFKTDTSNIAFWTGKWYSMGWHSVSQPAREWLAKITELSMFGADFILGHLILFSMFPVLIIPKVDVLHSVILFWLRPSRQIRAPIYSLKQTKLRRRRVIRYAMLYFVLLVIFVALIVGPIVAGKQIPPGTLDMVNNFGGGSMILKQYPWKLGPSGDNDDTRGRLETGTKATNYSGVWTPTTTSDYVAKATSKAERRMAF
Sequence of Neurospora crassa wild type (1,3)β-glucan synthase (crude extract) (Q7RXU8 1-195 partner): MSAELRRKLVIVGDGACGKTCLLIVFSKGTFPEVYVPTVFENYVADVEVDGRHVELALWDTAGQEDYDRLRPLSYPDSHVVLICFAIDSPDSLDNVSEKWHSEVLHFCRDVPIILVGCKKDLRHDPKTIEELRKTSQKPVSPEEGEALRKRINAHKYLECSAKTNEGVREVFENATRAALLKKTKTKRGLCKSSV

## O=C(O)C1(O)CC(O)C(O)C(O)C1 (single isomer, unassigned) [quinate, quinic acid]
  inhibitory effect of quinate on (1,3)β-glucan synthase activity: did not show an inhibitory effect
